Experimental data taken from patent publication US20230270753A1, “COMBINATIONS OF GABAA ALPHA 5 AGONISTS AND SV2A INHIBITORS AND METHODS OF USING IN THE TREATMENT OF COGNITIVE IMPAIRMENT” (AGENEBIO, INC., priority 2020, published 2023).
Like-named read-outs stand apart in the source and are kept apart here.

How the values were obtained:
Assay type in all cases: in vivo, rat
aged-impaired rats [1] = test system: aged-impaired rats
aged-impaired rats [2] = assay: Water maze, acute and chronic Compound 1 (Example 7); details: Compound 1 10 mg/kg IP
Text: Rats were trained and tested in a novel water maze environment to assess the effect of the treatments. The water maze used here was housed in a different room and was surrounded by curtains with a novel set of patterns relative to the maze used for initial assessment of cognitive status. The training and testing protocol used was identical to the spatial learning-activated protocol described in Haberman et al., (2008, Proceedings of the National Academy of Sciences USA, 105, 10601-10606). The task required rats to swim to a […] escape platform at a fixed location in the presence of spatial cues for 8 training trials with an inter-trial interval of 8 min. An hour after the last training trial, rats were given a probe test in the absence of the escape platform (free swim) to assess the memory of the platform location as measured by time spent searching at the target location.
To assess the acute and chronic effects of Compound 1 treatment, rats received 15-16 days of drug injections with assessment on the water maze on the first day (acute effect) and last day (chronic effect) of treatment. Different surrounding spatial cues and escape location in the water maze were used for the initial and subsequent assessments. Compound 1 was given at 10 mg/kg using intraperitoneal injection (IP) at a volume of 1 ml/kg. […]

aged-impaired rats [3] = assay: Radial arm maze, 5-hr delay, acute Compound 1 via PO (Example 7); details: Compound 1 10 mg/kg PO 30-40 min before information trial
Text: All rats were screened in a standardized assessment of spatial cognition before the commencement of drug studies. The background assessment used a well-established Morris water maze protocol as described in detail elsewhere (Gallagher et al, 1993). Briefly, the rats were trained for 8 days (three trials per day) to locate a camouflaged escape platform that remained at the same location throughout training in a water maze. Every sixth trial consisted of a probe trial (free swim with no escape platform) that served to assess the development of a spatially localized search for the escape platform. During these probe trials, a learning index was generated from the proximity of the rat to the escape platform and was used to define impairment in the aged rats. The learning index is the sum of weighted proximity scores obtained during probe trials, with low scores reflecting a search near the escape platform and high scores reflecting searches farther away from the platform (Gallagher et al, 1993). Cue training (visible escape platform) occurred on the last day of training to test for sensorimotor and motivational factors independent of spatial learning. Aged rats with impaired spatial memory performance (i.e., those with learning index scores outside the young ‘normative’ range) but successful cued training performance were used for the studies as described below. […]

COCc1nnc2n1Cc1c(C#Cc3cnc(OC)s3)ncn1-c1ccc(Cl)cc1-2 [Compound 1]
efficacy of Compound 1 on its own in the radial arm maze (aged-impaired rats [1]; Compound 1 2.5 mg/kg IP alone): subtherapeutic | efficacy of Compound 1 on its own in the radial arm maze (aged-impaired rats [1]; Compound 1 5 mg/kg IP alone): subtherapeutic | time spent in the target quadrant of the Morris Water Maze (aged-impaired rats [2]; acute (first day of treatment)): spent more time in the target quadrant | time spent in the target quadrant of the Morris Water Maze (aged-impaired rats [2]; chronic (last day of 15-16 days of injections)): spent more time in the target quadrant | number of errors in the radial arm maze vs vehicle (aged-impaired rats [3]): fewer errors
